Results as given in patent publication US6914049B2, “IGF-binding protein-derived peptide or small molecule” (Bioexpertise, LLC, priority 2001, dated 2005).

Experiments:
HEK293 cells [1] = test: Caspase-3 apoptosis assay on nutritionally stressed HEK293 cells (Examples 1-2); assay type: cell-based, human; settings: FIG. 4A/4B
Method: Human embryonal kidney 293 (HEK293) cells were grown in Dulbecco's Modified Eagle Medium (D-MEM) supplemented with fetal calf serum at 2%, 4%, 6%, or 8%. When the cells reached 80-85% confluency (cell titer approximately 2.1×10^6 cells per plate), 5 μg of IGFBP-3 or buffer control was added to each plate. The cells were incubated at 37° C. overnight. The next day the medium was removed and the cells were rinsed with trypsin-EDTA (0.25% trypsin, 1 mM EDTA) plus 1× phosphate buffered saline. The cells were centrifuged and the supernatant was removed. ApoAlert caspase-3 assay kit from Clontech Inc (Palo Alto, Calif.) was used to measure apoptosis. The cells were resuspended in 50 μl of chilled cell lysis buffer and incubated on ice for 10 minutes. The resulting cell, lysates were centrifuged at 14000 rpm in a Beckman microcentrifuge for 3 minutes at 4 C. The supernatant was transferred to new tubes and 50 μl of 2× reaction buffer/DTT plus 5 μl of 1 mM caspase-3 substrate was added to each tube. After incubating at 37 C. for 1 hour in a water bath, the samples were read at 405 nm in a microplate reader.
Peptides derived from IGFBP-3 were tested for pro-apoptotic activity essentially as described in Example 1.
The peptides tested are described in Table 1 (peptides marked with an asterisk include a hexahistidine tag).

[2] = IMAC of IGFBP-3 on Ni++ and Zn++ resins; assay type: binding
Method: Panels a and b (FIGS. 5A and 5B) show SDS-PAGE analysis of samples from Ni^++ and Zn^++ IMAC, respectively. FT indicates column flowthrough; W indicates wash; 50 indicates 50 mM imidazole wash; 60 indicates 60 mM imidazole wash; E indicates 1 M imidazole elution buffer; S indicates 1 M EDTA stripping buffer.
This previously unknown property of IGFBP-3 is intriguing and has a number of practical implications among which the ability to capture products using immobilized metal affinity (IMAC) resins leads to a number of potential applications in therapeutic, high-throughput discovery, and other research arenas.

[3] = Binding of IGFBP-3 to IMAC (NTA) resin charged with metal; settings: approx. 1 mg loaded
Method: (§1) Binding of IGFBP-3 to immobilized metal affinity chromatography (IMAC) resin charged with various metals was measured. Approximately 1 mg of IGFBP-3 was loaded onto each column (NTA resin, Sigma Chemical Co., St. Louis, Mo.). The “percentage bound” was calculated by measuring OD280 of load, flow-through, wash and eluate at 60 mM imidazole. Typical recoveries were 85-95%.

[4] = Binding of IGFBP-3 to IMAC (NTA) resin without metal; settings: metal none; approx. 1 mg loaded
Method: as §1

HEK293 cells [5] = test: Co-apoptotic activity of IGFBP-3 and paclitaxel, caspase-3; assay type: cell-based, human; settings: 200 ng/ml antibody, 30 minutes pretreatment; FIG. 8B
Method: Co-aptotic activity of IGFBP-3 in combination with paclitaxel was measured in the HEK293 assay described in Example 1. HEK293 cells were grown in DMEM plus 8% FCS, then incubated in 0.3 ng/ml of paclitaxel (TAXOL®), 50 ng/ml of IGFBP-3, or a combination of the two. Some cultures were pretreated for 30 minutes with 200 ng/ml of anti-beta-1-integrin antibody (Pharmingen). Caspase-3 was assayed using the ApoAlert caspase-3 kit from Clontech Inc.

MDA-MB-231 cells = test: Co-apoptotic activity of IGFBP-3 with cisplatin; assay type: cell-based; settings: MDA-MB-231 cells and cisplatin; FIG. 8C
HEK 293 cells [6] = test: Co-apoptotic activity of MBD peptides and paclitaxel, caspase-3; assay type: cell-based, human; settings: normalized to MBD2 = 100 on a molar basis; peptide 50 ng/ml, 0.3 ng/ml paclitaxel, 8 hours
Method: Peptides (50 ng/ml) were added to 80% confluent HEK 293 cells grown in DMEM supplemented with 0.3 ng/ml paclitaxel concurrent with peptide. Caspase-3 activity was measured in cell extracts 8 hours post-addition.
(§2) Apoptotic activity is expressed in arbitrary caspase-3 units normalized to MBD2 on a molar basis (MBD2 activity was defined as 100 units (avg. of 3 experiments); “nd” indicates “not done”; “ps” indicates phosphoserine. Metal-binding is expressed as a percentage of loaded peptide bound to a Ni-NTA resin; approximately 1-1.5 mg of peptide were loaded on the column. Cell uptake was determined using genetic fusions to GFP as described in Example 9.

[7] = Metal-binding of peptides to Ni-NTA resin; settings: percentage of loaded peptide bound to Ni-NTA resin; 1-1.5 mg loaded
Method: as §2

HEK293 cells [8] = test: Co-apoptotic activity with paclitaxel in presence of plasma proteins; assay type: cell-based, human; settings: 50 ng/ml, 0.3 ng/ml paclitaxel, eight hours
Method: Co-apoptotic activity of MBD peptides or IGFBP-3 with paclitaxel was tested in the presence or absence of two plasma proteins; fibronectin and fibrinogen. MBD peptides or IGFBP-3, (50 ng/ml), 0.3 ng/ml paclitaxel, and plasma proteins (200 ng/ml) were added to 80% confluent HEK293 cells grown in DMEM essentially as described in Example 8. Caspase-3 was measured after an eight hour incubation.
Apoptotic activity was calculated in arbitrary caspase-3 units normalized to MBD2 (MBD2 activity was defined as 100 units) Results are summarized in Table 4 (average of 3 experiments).

[9] = test system: MA-16C mammary adenocarcinoma tumors; test: MA-16C mammary adenocarcinoma tumor implants; assay type: in vivo, female C3H mice; settings: for Lung Metastases: animals with metastases/animals
Method: Fragments of MA-16C mammary adenocarcinoma tumors were implanted subcutaneously into female C3H mice (8-11 animals per group). The animals were treated with vehicle alone, IGFBP-3 (4 mg/kg/day for 21 days by subcutaneous injection), doxorubicin (2 mg/kg on days 1 and 8 by intravenous injection), or IGFBP-3 plus doxorubicin. A separate study was performed where the animals were treated with vehicle alone, 5-fluorouracil (10 mg/kg on days 1-5 by intraperitoneal injection), or IGFBP-3 plus 5-fluorouracil. Tumor size was measured at day 18, and the mice were sacrificed at day 21, and the implanted tumors were removed for determination of caspase-3 activity (a marker of apoptosis-only performed for DOX groups).

HEK 293 cells [10] = test: IGF-independence of apoptosis stimulation, caspase-3; assay type: cell-based, human
Method: HEK 293 cells were cultured under stressed conditions (low serum or in the presence of paclitaxel) with and without IGFBP-3 (50 ng/ml) or MBD2 (50 ng/ml). Apoptosis was assayed using the caspase-3 assay as described in Example 1.

[11] = test system: bax-alpha expression in HEK 293 cells; test: Bax-alpha and bcl-2 mRNA expression; assay type: cell-based, human; settings: paclitaxel 0.3 ng/ml, 50 ng/ml; FIG. 14A
Method: HEK 293 cells were cultured as described in Example 1, with the addition paclitaxel (0.3 ng/ml) and either IGFBP-3 or MBD2 at 50 ng/ml. Bax-alpha and bcl-2 mRNA and caspase 3 activity were assayed.

[12] = Solubility / concentration in phosphate buffered saline; assay type: physicochemical; settings: PBS
Description: Formulation: The central domain of IGFBP-3 is exquisitely sensitive to proteolysis. Due to the limited, solubility of IGFBP-3, its low stability and pronounced tendency to aggregate, the development of suitable formulations and convenient routes of delivery for intact IGFBP-3 is challenging.

IGFBP-3: full-length, 264 aa, IGFBP-3 (insulin-like growth factor binding protein-3)
pro-apoptotic activity (HEK293 cells [1]): has pro-apoptotic activity
binding to IMAC resins ([2]; Ni^++ and Zn^++ IMAC, SDS-PAGE): bound both IMAC resins effectively
imidazole concentration that elutes from the resin ([2]; immobilized nickel and zinc): 60 mM
% IGFBP-3 bound ([3]; Ca^++): 0.0%
% IGFBP-3 bound ([3]; Co^++): 95.1%
% IGFBP-3 bound ([3]; Fe^2+): 46.6%
% IGFBP-3 bound ([3]; Fe^3+): 55.1%
% IGFBP-3 bound ([3]; Mg^++): 38.8%
% IGFBP-3 bound ([3]; Mn^++): 20.1%
% IGFBP-3 bound ([3]; Ni^++): 97.6%
% IGFBP-3 bound ([3]; Zn^++): 59.5%
% IGFBP-3 bound [4]: 0.0%
co-apoptotic activity after anti-beta-1-integrin antibody pretreatment (HEK293 cells [5]): greatly inhibits the co-apoptotic activity
co-apoptotic activity (MDA-MB-231 cells): failed to demonstrate any co-apoptotic activity
Apoptotic Activity (HEK 293 cells [6]): 585 arbitrary caspase-3 units
Metal-binding [7]: 93 percentage
co-apoptotic activity with Fibrinogen (HEK293 cells [8]; Fibrinogen 200 ng/ml): 1.1 arbitrary caspase-3 units
co-apoptotic activity with Fibronectin (HEK293 cells [8]; Fibronectin 200 ng/ml): 3.5 arbitrary caspase-3 units
co-apoptotic activity, plasma protein none (HEK293 cells [8]; no plasma protein): 100.0 arbitrary caspase-3 units
Tumor Weight ([9]; 5FU study, 5-fluorouracil 10 mg/kg ip days 1-5, IGFBP-3 4 mg/kg/day sc): 3147 + 952 mg
Lung Metastases ([9]; 5FU study): 1/7
Tumor Weight ([9]; DOX study, IGFBP-3 4 mg/kg/day sc 21 days, doxorubicin 2 mg/kg iv days 1 and 8): 2632 + 554 mg
Lung Metastases ([9]; DOX study): 1/7
Caspase-3 ([9]; DOX study, tumors removed at day 21): 3.79 ± 3.25
IGF dependence of pro-apoptotic activity (HEK 293 cells [10]; 0.3 ng/ml paclitaxel, alone or with Y60L-IGF-I, FIG. 11C): independent of the presence of IGF
pro-apoptotic activity under stressed conditions (HEK 293 cells [10]; low serum or paclitaxel, 50 ng/ml, FIGS. 11A, 11B): nearly identical
bax-alpha expression [11]: stimulates bax-alpha expression
maximum solubility in phosphate buffered saline [12]: 7000 µg/mL
